According to patent US5821240A, “Pyrimido[5,4]-dipyrimidines, pharmaceuticals containing them, their use and processes for the preparation thereof” (Dr. Karl Thomae GmbH, priority 1996, dated 1998):

Legend:
[1] = system: human tumour cell line KB; assay: Inhibition of EGF/TGF-alpha-stimulated KB cell proliferation ([3H]-thymidine incorporation); assay type: cell-based; details: TGF-alpha 10 ng/ml or EGF 20 ng/ml, serum-free, 60 hours then [3H]-thymidine 16-18 h
Procedure: KB cells (purchased from ATCC) were passaged in DMEM (BioWhittaker) in the presence of 10% FCS (Boehringer Mannheim), 50 μM beta-mercaptoethanol and standard antibiotics. The EGF-induced DNA synthesis was determined by measuring the incorporation of radioactively labelled thymidine as indicator of EGF/TGF-alpha-stimulated cell proliferation. To do this, the cells were washed twice and 1500 cells per well were plated out in a 96-well plate in 200 μl of IMDM (BioWhittaker) without serum in the presence of 50 μM beta-mercaptoethanol, standard antibiotics, TGF-alpha [10 ng/ml] or EGF [20 ng/ml] and of various concentrations of the substances according to the invention (triplicates, maximum DMSO concentration 1%, see proliferation t t with F/L-HERc cells). After 60 hours, [^3 H]-thymidine (0.1 μCi in 10 μl) was added for about 16-18 h.

[2] = system: F/L-HERc cells expressing human EGF-R; assay: Inhibition of EGF-dependent proliferation of F/L-HERc cells; assay type: cell-based, murine cell line; human EGF-R; details: EGF 20 ng/ml, 37° C., 48 hours
Description: (§1) In this case, an interleukin-3 (IL-3)-dependent cell line of murine origin was used and was genetically modified in such a way that it expresses functional human EGF-R. Proliferation of these cells, which are called F/L-HERc, can therefore be stimulated either by murine IL-3 or by EGF (see von Ruden, T. et al. in EMBO J. 7, 2749-2756 (1988) and Pierce, J. H. et al. in Science 239, […] (1988)).
(§2) The starting material for the F/L-HERc cells was the cell line FDC-P1 whose preparation has been described by Dexter, T. M. et al. in J. Exp. Med. 152, 1036-1047 (1980). However, it is also possible as an alternative to use other growth factor-dependent cells (see, for example, Pierce, J. H. et al. in Science 239, 628-631 (1988), Shibuya, H. et al. in Cell 70, 57-67 (1992) and Alexander, W. S. et al. in EMBO J. 10, 3683-3691 (1991)). Recombinant retroviruses as described in von Ruden, T. et al., EMBO J. 7, 2749-2756 (1988) Were used for expression of the human EGF-R cDNA (see Ullrich, A. et al. in Nature 309, 418-425 (1984)), with the difference that the retroviral vector LXSN (see Miller, A. D. et al. in BioTechniques 7, 980-990 (1989)) was employed for expression of the EGF-R cDNA, and the line GP+E86 (see Markowitz, D. et al. in J. Virol. 62, 1120-1124 (1988)) was used as packaging cell.
(§3) F/L-HERc cells were cultivated in RPMI/1640 medium (BioWhittaker), supplemented with 10% fetal calf serum (FCS, Boehringer Mannheim), 2 mM glutamine (BioWhittaker), standard antibiotics and 20 ng/ml human EGF (Promega), at 37° C. and 5% CO2. To investigate the inhibitor activity of the compounds according to the invention, 1.5×10^4 cells were cultivated in the above medium (200 μl) per well in triplicates in 96-well plates, stimulating proliferation of the cells either with EGF (20 ng/ml) or with murine IL-3. The source used for IL-3 was culture supernatants from the cell line X63/0 mIL-3 (see Karasuyama, H. et al. in Eur. J. Immunol. 18, 97-104 (1988)). The compounds according to the invention were dissolved in 100% dimethyl sulphoxide (DMSO) and added in various dilutions to the cultures, with the maximum DMSO concentration being 1%. The cultures were incubated at 37° C. for 48 hours.
(§4) To determine the inhibitory activity of the compounds according to the invention, the relative cell count was measured in O.D. units using the Cell Titre 96™ AQueous Non-Radioactive Cell Proliferation Assay (Promega). The relative cell count was calculated as a percent of the control (F/L-HERc cells without inhibitor), and the concentration of active substance which inhibits the proliferation of the cells by 50% (IC50) was inferred.

F/L-HERc cells = assay: Inhibition of IL-3-dependent proliferation of F/L-HERc cells; assay type: cell-based; details: Mus musculus, murine IL-3, 37° C., 48 hours
Description: as §1, §2, §3, §4

Row | IC50 [1] [nM] | Compound | IC50 [2] [nM] | IC50 (F/L-HERc cells) [nM]
1 | 100 to 1000 | CC(CN1CCCCC1)Nc1ncc2ncnc(Nc3ccc(F)c(Cl)c3)c2n1 (stereo not drawn) [1(20), 4-[(3-Chloro-4-fluorophenyl)amino]-6-[1-(1-piperidinyl)-2-propylamino]pyrimido[5,4-d]pyrimidine] | 225 | > 1000
2 | 100 to 1000 | CCN(CC)CC(C)Nc1ncc2ncnc(Nc3ccc(F)c(Cl)c3)c2n1 (stereo not drawn) [1(21), 4-[(3-Chloro-4-fluorophenyl)amino]-6-[1-(N,N-diethylamino)-2-propylamino]pyrimido[5,4-d]pyrimidine] | 300 | > 1000
3 | 100 to 1000 | NCC1CCC(CNc2ncc3ncnc(Nc4ccc(F)c(Cl)c4)c3n2)CC1 (stereo not drawn) [1(22), 4-[(3-Chloro-4-fluorophenyl)amino]-6-[4-(aminomethyl)cyclohexylmethylamino]pyrimido[5,4-d]pyrimidine] | 43 | > 1000
